Patent US4877776A, “K-252 compounds” (Kyowa Hakko Kogyo Co., Ltd., priority 1987, dated 1989)
≈ marks a conversion by molar mass, not a printed value. Read-outs that look alike come from different tables or passages of the source. Each block holds one compound with its values, some of them ahead of it.

Key:
[1] = tested on: histamine release; conditions: in words, from other filings; cited from earlier work
[2] = tested on: C-kinase; conditions: in words, cited from earlier work; for inhibitory activity against C-kinase: from literature or other filings; for specificity of C-kinase inhibition: from literature
[3] = in words, from literature; cited from earlier work
[4] = molecular target: C-kinase (protein kinase C); assay: C-Kinase inhibitory activity test; assay type: biochemical; conditions: concentration at which enzyme activity was inhibited 50%
Experimental: (§1) Compound (I) obtained by the present invention was examined for C-kinase inhibitory activity and cell growth inhibitory activity by the following methods.
C-Kinase inhibitory activity test:
C-Kinase inhibitory activity of representative Compounds (I) was measured in accordance with the method of Y. Nishizuka, et al. [J. Biol. Chem., 257, 13341 (1982)]. The test was carried out on test compounds at varied concentrations, and the concentration at which the enzyme activity was inhibited 50% (IC50) was determined.

[5] = tested on: HeLaS3 cells (human uterine cervical cancer HeLa cells); assay: HeLaS3 cell growth inhibition test; assay type: cell-based; conditions: read-out: IC50, HeLaS3 cell growth inhibitory activity
Experimental: as §1
(§2) Cell growth inhibition tests:
(§3) MCF7 cells (4.5×10^4 cells/ml) pepared in RPMI 1640 medium containing 10% fetal calf serum, 10 μg/ml insulin and 10^-8 M estradiol are put into wells of a 96-well microtiter plate in the amount of 0.1 ml per each well. After incubation at 37° C. overnight in CO2 -incubator, 0.05 ml of a test sample appropriately diluted with the culture medium is added to each well. The cells are further cultured in CO2 -incubator, and then the culture supernatant is removed and the wells are washed once with PBS(-). Thereafter, 0.1 ml of fresh medium is added to each well, followed by culturing at 37° C. for 72 hours in CO2 -incubator. After the culture supernatant is removed, 0.1 ml of the culture medium containing 0.02% Neutral Red is added to each well, followed by culturing at 37° C. for one hour in CO2 -incubator, whereby the cells are stained. Then, the culture supernatant is removed and the cells are washed once with physiological saline. The pigment is extracted with 0.001N hydrochloric acid/30% ethanol and absorption is measured at 550 nm with a microplate reader. By comparing the absorption of intact cells with those of the cells treated with a test compound at known concentrations, the concentration of the test compound at which growth of the cells is inhibited 50% is calculated as IC50.
(2) HaLaS3 cell growth inhibition test:
HeLaS3 cells (3×10^4 cells/ml) prepared in MEM medium containing 10% fetal calf serum and 2 mM glutamine are put into wells of a 96-well microtiter plate in the amount of 0.1 ml per each well.
Thereafter, the test is carried out in the same manner as in (1).

[6] = tested on: MCF7 cells (human breast cancer cell MCF7); assay: MCF7 cell growth inhibition test; assay type: cell-based; conditions: read-out: IC50, MCF7 cell growth inhibitory activity
Experimental: as §1, §2
(1) MCF7 cell growth inhibition test:
as §3

[7] = tested on: COLO320DM cells (human colon adenocarcinoma cell COLO320DM); assay: COLO320DM cell growth inhibition test; assay type: cell-based; conditions: COLO 320DM, read-out: IC50, COLO320DM cell growth inhibitory activity
Experimental: as §1, §2
(3) COLO320DM cell growth inhibition test:
COLO320DM cells (10^5 cells/ml) prepared in RPMI 1640 medium containing 10% fetal calf serum, 100 U/ml penicillin and 100 μg/ml streptomycin are put into wells of a 96-well microtiter plate in the amount of 0.1 ml per each well. Thereafter, the test is carried out in the same manner as in (1) except that the cells are counted with a microcell counter. By comparing the number of intact cells with those of the cells treated with a test compound at known concentrations, the concentration of the test compound at which growth of the cells is inhibited 50% is calculated as IC50.

[8] = in words, from other filing; cited from earlier work
[9] = HeLa S3, HeLaS3, Neutral Red, 72 hours
[10] = COLO320DM, cells counted with a microcell counter, 72 hours

Structure (SMILES): CC12OC(CC1(O)C(=O)O)n1c3ccccc3c3c4c(c5c6ccccc6n2c5c31)CNC4=O (centres unmarked) [KT-5556]
activity to inhibit histamine release [1]: activity to inhibit histamine release

Structure (SMILES): CN(C)CCCN1c2ccccc2Sc2ccc(Cl)cc21 [chlorpromazine]
inhibitory activity against C-kinase [2]: low inhibitory activity against C-kinase | specificity of C-kinase inhibition [2]: low specificity

Structure (SMILES): CN[C@@H]1C[C@H]2O[C@@](C)([C@@H]1OC)n1c3ccccc3c3c4c(c5c6ccccc6n2c5c31)C(=O)NC4 [Staurosporine]
antibacterial activity [3]: antibacterial activity

IC50, C-Kinase inhibitory activity [4]: 0.18 µg/mL (≈ 0.36 µM) | IC50 [5, 9]: 1.43 µg/mL (≈ 2.86 µM) | IC50 ([6]; MCF7, Neutral Red, 72 hours): 5.08 µg/mL (≈ 10.2 µM)
Structure (SMILES): CCSC1NC(=O)c2c1c1c3ccccc3n3c1c1c2c2ccccc2n1C1CC(O)(CO)C3(C)O1 (centres unmarked) [Compound 7]
IC50 [7, 10]: 1 µg/mL (≈ 2 µM)

Structure (SMILES): NCCCCCCNS(=O)(=O)c1cccc2c(Cl)cccc12 [Compound W-7, N-(6-aminohexyl)-5-chloro-1-naphthalenesulfonamide]
inhibitory activity against C-kinase [2]: low inhibitory activity against C-kinase | specificity of C-kinase inhibition [2]: low specificity

Structure (SMILES): CN1CCN(CCCN2c3ccccc3Sc3ccc(C(F)(F)F)cc32)CC1 [trifluoperazine]
inhibitory activity against C-kinase [2]: low inhibitory activity against C-kinase | specificity of C-kinase inhibition [2]: low specificity

Structure (SMILES): ClCCN(Cc1ccccc1)Cc1ccccc1 [dibenamine]
inhibitory activity against C-kinase [2]: low inhibitory activity against C-kinase | specificity of C-kinase inhibition [2]: low specificity

Structure (SMILES): COC(=O)C1(O)CC2OC1(C)n1c3ccccc3c3c4c(c5c6ccccc6n2c5c31)C(=O)NC4 (centres unmarked) [Compound K-252]
IC50, C-Kinase inhibitory activity [4]: 0.016 µg/mL (≈ 0.0342 µM) | IC50 ([5]; HeLa S3, 72 h): 0.2 µg/mL (≈ 0.428 µM) | IC50 ([6]; MCF7, 72 h): 0.51 µg/mL (≈ 1.09 µM) | IC50 ([7]; 72 h): 0.27 µg/mL (≈ 0.578 µM) | activity to inhibit histamine release [1]: activity to inhibit histamine release | anti-allergic activity [8]: anti-allergic activity

Structure (SMILES): COC(=O)C1(O)CC2OC1(C)n1c3ccccc3c3c4c(c5c6ccccc6n2c5c31)C(=O)NC4O (centres unmarked) [Compound 5]
IC50, C-Kinase inhibitory activity [4]: 1.2 µg/mL (≈ 2.48 µM) | IC50 [5, 9]: 1.53 µg/mL (≈ 3.16 µM) | IC50 ([6]; MCF7, Neutral Red, 72 hours): 0.8 µg/mL (≈ 1.65 µM) | IC50 [7, 10]: 2.55 µg/mL (≈ 5.27 µM)

Structure (SMILES): CCCCNc1ccc(C(=O)OCCN(C)C)cc1 [tetracaine]
inhibitory activity against C-kinase [2]: low inhibitory activity against C-kinase | specificity of C-kinase inhibition [2]: low specificity
